# Patent publication US6228985A, “Derivatives of aminobenzoic and aminobiphenylcarboxylic acids useful as anti-cancer agents” (Schering Corporation, priority 1998, dated 2001)
# Biological target: uPAR
# Assay: not given
# Details: critical domain alone (uPA,12-32); read-out: affinity; cited from earlier work
row,Compound,Kd
1,"uPA,12-32: The critical domain alone (uPA,12-32); residues 12-32 of the EGF-like domain of uPA (DCLNGGTCVSNKYFSNIHWCN; UniProt P00749 32-52, looked up, fragment)",40 nM

# Same assay, conditions: less than intact ATF; cited from earlier work
row,Compound,affinity relative to intact ATF (fold less)
1,"uPA,12-32: The critical domain alone (uPA,12-32); residues 12-32 of the EGF-like domain of uPA (DCLNGGTCVSNKYFSNIHWCN; UniProt P00749 32-52, looked up, fragment)",about 100 fold

# Biological target: T1, uPAR (Homo sapiens, UniProt Q03405)
# T1 construct: these cells express high levels of unoccupied uPA receptors; endogenous in cells; host or cells: DU-145 human prostate cancer cells (intact cells, harvested with trypsin/EDTA)
# T1 sequence (Q03405 23-335): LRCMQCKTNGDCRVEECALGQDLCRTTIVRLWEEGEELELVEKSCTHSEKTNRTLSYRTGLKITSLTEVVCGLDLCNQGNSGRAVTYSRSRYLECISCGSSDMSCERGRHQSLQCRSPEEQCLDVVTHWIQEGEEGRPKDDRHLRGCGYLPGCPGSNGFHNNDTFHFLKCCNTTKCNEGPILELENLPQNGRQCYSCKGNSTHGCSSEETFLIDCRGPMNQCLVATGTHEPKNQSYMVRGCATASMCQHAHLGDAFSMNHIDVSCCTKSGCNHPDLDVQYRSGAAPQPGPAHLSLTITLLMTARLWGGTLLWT
# Assay: cell-based, competition radioligand binding assay (specific binding of c-[125I-Tyr24]-ATFp to DU-145 cells)
# Details: radioligand c-[125I-Tyr24]-ATFp 3 nM (1.5 Kd), 4° C. for 90 min, duplicate tubes, 2-3 independent experiments
# Protocol: The following assay procedure, which is a cell-based, competition radioligand binding assay, was carried out to determine the activity of the foregoing compounds as uPAR antagonists.
# Radioligand Preparation. The minimal receptor-binding sequence of uPA was determined by Apella et al., J. Biol. Chem. 262:4437-4440 (1987), utilizing non-radioactive peptides as competition for a larger uPA radioligand. Our assay was developed and characterized using an iodinated version of the minimal receptor binding sequence of human uPA (residues 12-32, Ala^19). The 21-amino acid peptide (cyclized), referred to herein as "c-ATFp", was synthesized and iodinated as follows: 10 ug of c-ATFp was iodinated with 1 mCi Na^125 I, using the Chloramine-T method (Iodo-Beads, Pierce Chemical Co.); iodinated peptide was separated from unincorporated iodine with Sep-Pak C18 cartridges (Millipore), and the C18-bound peptide was eluted with acetonitrile. This procedure routinely yielded a radioiodinated c-ATFp (c-[^125 I-Tyr^24 ]-ATFp) with specific activity of 105 Ci/mmol: [drawing 101]
# Determination of Radioligand Binding. DU-145, a human prostate cancer cell line, was selected for radioligand binding assays because these cells express high levels of unoccupied uPA receptors (approximately 500,000 receptors/cell). Subconfluent, 2 day cultures of DU-145 cells were prepared for radioligand binding assays by harvesting monolayers with trypsin/EDTA. The cells were washed one time with serum-free Dulbecco's Modified Eagle Medium (DMEM), and suspended at a cell density of 250,000 cells/ml in ice-cold DME containing 0.1% bovine serum albumin. Test compounds were solubilized in DMSO at 2 mg/ml and subsequently diluted in phosphate buffered saline to prepare stock concentrations of 200 ug/ml, 20 ug/ml, 2 ug/ml, 0.2 ug/ml, and 0.02 ug/ml. The binding reactions were initiated by addition of 1.0 ml cell suspension to microcentrifuge tubes containing 10 ul of: the indicated test compound solutions, or appropriately diluted DMSO controls, and c-[^25 ]-Tyr^24 ]-ATFp, such that the final concentration of radioligand was 3 nM (1.5 Kd). To control for specific binding, parallel reaction tubes were prepared containing 1,000-fold excess unlabeled c-ATFp. Reaction tubes were incubated with rocking at 4° C. for 90 min. Binding was terminated by 4° C. centrifugation at 800× g for 1 min in a refrigerated microcentrifuge. Unbound radioligand was removed by aspirating the reaction medium, adding fresh, ice-cold DMEM, 0.1% bovine serum albumin to the pelleted cells, and then quickly re-centrifuging and aspirating the wash from the cell pellet. The washing steps were completed in 2-4 minutes by this method, depending on the number of tubes in each experiment. Tips of microcentrifuge tubes containing the cell pellets were snipped and transferred to counting tubes. Radioactivity bound to the cells was determined in a gamma counter.
# Specific binding of the radioligand was calculated as the difference between the amount of c-[^125 I-Tyr^24 ]-ATFp bound in the absence (total binding) and presence (non-specific binding) of the unlabeled c-ATFp. The efficacy of test compounds for inhibiting specific binding of c-[^125 I-Tyr^24 ]-ATFp was determined by plotting a graph of specific binding (y-axis) as a function of test compound concentration (x-axis). The concentration of test compound required to inhibit 50% of the specific binding (lC50) was determined from the plot. The IC50 may be directly converted mathematically to Ki, which is a measure of the receptor binding affinity of the compounds under the defined assay conditions. Test compounds were evaluated in duplicate tubes, in 2-3 independent binding experiments.
row,Compound,IC50
1,O=C(N[C@@H](Cc1c[nH]c2ccccc12)C(=O)Nc1ccc(-c2ccc(C(=O)N[C@@H](Cc3ccccc3)C(=O)O)cc2)cc1)OCC1c2ccccc2-c2ccccc21 [Example 8-D],190 nM
2,O=C(N[C@@H](Cc1c[nH]c2ccccc12)C(=O)Nc1ccc(-c2ccc(C(=O)N[C@@H](Cc3c[nH]c4ccccc34)C(=O)O)cc2)cc1)OCC1c2ccccc2-c2ccccc21 [Example 8-E],310 nM
3,CC(=O)N[C@@H](Cc1c[nH]c2ccccc12)C(=O)Nc1ccc(-c2cccc(C(=O)N[C@@H](Cc3ccccc3)C(=O)O)c2)cc1 [Example 8-O],167 nM
4,CC(=O)N[C@@H](Cc1c[nH]c2ccccc12)C(=O)NCc1ccccc1-c1ccc(C(=O)N[C@@H](Cc2ccccc2)C(=O)O)cc1 [Example 8-P],70 nM
5,CC(=O)N[C@@H](Cc1c[nH]c2ccccc12)C(=O)Nc1ccc(-c2ccc(C(=O)O)cc2)cc1 [Example 8-R],1500 nM
6,O=C(O)C[C@H](NC(=O)c1ccc(-c2ccc(NC(=O)[C@H](Cc3c[nH]c4ccccc34)NC(=O)OCC3c4ccccc4-c4ccccc43)cc2)cc1)C(=O)O [Example 9-C],300 nM
7,CC(=O)N[C@@H](Cc1c[nH]c2ccccc12)C(=O)Nc1ccc(-c2ccc(C(=O)NCCc3ccccc3)cc2)cc1 [Example 11-W],355 nM
8,CC(=O)N[C@@H](Cc1c[nH]c2ccccc12)C(=O)Nc1ccc(-c2ccc(C(N)=O)cc2)cc1 [Example 12-Y],91 nM

# Continued, values first:
row,IC50,Compound
1,20 nM,O=C(Cc1c[nH]c2ccccc12)Nc1ccc(-c2ccc(C(=O)N[C@@H](Cc3ccccc3)C(=O)O)cc2)cc1 [Example 8-A]
2,0.9 nM,CC(=O)N[C@@H](Cc1c[nH]c2ccccc12)C(=O)Nc1ccc(-c2ccc(C(=O)NCCC(=O)O)cc2)cc1 [Example 8-F]
3,18 nM,CC(=O)N[C@H](Cc1c[nH]c2ccccc12)C(=O)Nc1ccc(-c2ccc(C(=O)NCCC(=O)O)cc2)cc1 [Example 8-G]
4,1.8 nM,CC(=O)N[C@@H](Cc1c[nH]c2ccccc12)C(=O)Nc1ccc(-c2ccc(C(=O)N[C@@H](Cc3ccccc3)C(=O)O)cc2)cc1 [Example 8-J]
5,4 nM,CC(=O)N[C@H](Cc1c[nH]c2ccccc12)C(=O)Nc1ccc(-c2ccc(C(=O)N[C@@H](Cc3ccccc3)C(=O)O)cc2)cc1 [Example 8-K]
6,8 nM,CC(=O)N[C@@H](Cc1c[nH]c2ccccc12)C(=O)Nc1ccc(-c2ccc(C(=O)N[C@H](Cc3ccccc3)C(=O)O)cc2)cc1 [Example 8-L]
7,28 nM,CC(=O)N[C@@H](Cc1c[nH]c2ccccc12)C(=O)Nc1ccc(C(=O)N[C@@H](Cc2ccccc2)C(=O)O)cc1 [Example 8-M]
8,0.8 nM,CC(=O)N[C@@H](Cc1c[nH]c2ccccc12)C(=O)Nc1cccc(-c2ccc(C(=O)N[C@@H](Cc3ccccc3)C(=O)O)cc2)c1 [Example 8-N]
9,18 nM,CC(=O)N[C@@H](Cc1ccccc1)C(=O)Nc1ccc(-c2ccc(C(=O)N[C@@H](Cc3ccccc3)C(=O)O)cc2)cc1 [Example 8-Q]
10,60 nM,CC(=O)N[C@@H](Cc1c[nH]c2ccccc12)C(=O)Nc1ccc(-c2ccc(C(=O)N[C@@H](CC(=O)O)C(=O)O)cc2)cc1 [Example 9-H]
11,17 nM,CC(=O)N[C@H](Cc1c[nH]c2ccccc12)C(=O)Nc1ccc(-c2ccc(C(=O)N[C@@H](CC(=O)O)C(=O)O)cc2)cc1 [Example 9-I]
12,6 nM,CC(=O)N[C@@H](CCC(N)=O)C(=O)Nc1ccc(-c2ccc(C(=O)N[C@@H](Cc3ccccc3)C(=O)O)cc2)cc1 [Example 9-S]
13,3 nM,CC(=O)N[C@@H](Cc1c[nH]c2ccccc12)C(=O)Nc1ccc(-c2ccc(C(=O)N[C@@H](Cc3ccc(O)cc3)C(=O)O)cc2)cc1 [Example 9-T]
14,44 nM,CC(=O)N[C@@H](Cc1c[nH]c2ccccc12)C(=O)Nc1ccc(-c2ccc(C(=O)N[C@@H](Cc3ccccc3)C(N)=O)cc2)cc1 [Example 10-U]
15,1.3 nM,CC(=O)N[C@@H](Cc1c[nH]c2ccccc12)C(=O)Nc1ccc(-c2ccc(C(=O)N[C@@H](CC(=O)O)C(N)=O)cc2)cc1 [Example 10-V]

# Test system: uPA:uPAR interaction
# Assay: not given
# Details: cited from earlier work
row,Compound,inhibition of the uPA:uPAR interaction
1,Cc1ccc(C(=O)Nc2ccc(S(=O)(=O)O)c3cc(S(=O)(=O)O)cc(S(=O)(=O)O)c23)cc1NC(=O)c1cccc(NC(=O)Nc2cccc(C(=O)Nc3cc(C(=O)Nc4ccc(S(=O)(=O)O)c5cc(S(=O)(=O)O)cc(S(=O)(=O)O)c45)ccc3C)c2)c1 [suramin],inhibit the uPA:uPAR interaction
